{"source": "PubChem BioAssay (NCI)", "assay_in_all_cases": "NCI tumour cell line growth inhibition, 48 h", "key": {"NCI-H226 lung": {"tested_on": "NCI-H226 lung"}, "NCI-H460 lung": {"tested_on": "NCI-H460 lung"}, "NCI-H522 lung": {"tested_on": "NCI-H522 lung"}, "NCI/ADR-RES ovarian": {"tested_on": "NCI/ADR-RES ovarian"}, "OVCAR-4 ovarian": {"tested_on": "OVCAR-4 ovarian"}, "OVCAR-5 ovarian": {"tested_on": "OVCAR-5 ovarian"}, "OVCAR-8 ovarian": {"tested_on": "OVCAR-8 ovarian"}, "PC-3 prostate": {"tested_on": "PC-3 prostate"}, "RPMI-8226 leukemia": {"tested_on": "RPMI-8226 leukemia"}, "RXF 393 renal": {"tested_on": "RXF 393 renal"}, "SF-268 CNS": {"tested_on": "SF-268 CNS"}, "SF-295 CNS": {"tested_on": "SF-295 CNS"}, "SF-539 CNS": {"tested_on": "SF-539 CNS"}, "SK-MEL-2 melanoma": {"tested_on": "SK-MEL-2 melanoma"}, "SK-MEL-28 melanoma": {"tested_on": "SK-MEL-28 melanoma"}, "SK-MEL-5 melanoma": {"tested_on": "SK-MEL-5 melanoma"}, "SK-OV-3 ovarian": {"tested_on": "SK-OV-3 ovarian"}, "SN12C renal": {"tested_on": "SN12C renal"}, "SNB-19 CNS": {"tested_on": "SNB-19 CNS"}, "SNB-75 CNS": {"tested_on": "SNB-75 CNS"}, "SR leukemia": {"tested_on": "SR leukemia"}, "SW-620 colon": {"tested_on": "SW-620 colon"}, "T-47D breast": {"tested_on": "T-47D breast"}, "TK-10 renal": {"tested_on": "TK-10 renal"}, "U251 CNS": {"tested_on": "U251 CNS"}, "UACC-257 melanoma": {"tested_on": "UACC-257 melanoma"}, "UACC-62 melanoma": {"tested_on": "UACC-62 melanoma"}, "UO-31 renal": {"tested_on": "UO-31 renal"}}, "note": "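Tested at 5 concentrations; 48 h exposure; 96-well plates; endpoints linearly interpolated, else capped at highest concentration. Abbreviation: GI50, concentration required for 50% inhibition of growth. TGI marks complete inhibition of growth.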"}
{"smiles": "O=C1C(N2CCN(c3ccccc3)CC2)=C(Cl)C(=O)c2ncccc21", "values": [{"measurement": "GI50", "setting": "NCI-H226 lung", "value": 14.3, "unit": "µM"}, {"measurement": "TGI", "setting": "NCI-H226 lung", "value": 31.9, "unit": "µM"}, {"measurement": "GI50", "setting": "NCI-H460 lung", "value": 6.73, "unit": "µM"}, {"measurement": "TGI", "setting": "NCI-H460 lung", "value": 22.4, "unit": "µM"}, {"measurement": "GI50", "setting": "NCI-H522 lung", "value": 1.73, "unit": "µM"}, {"measurement": "TGI", "setting": "NCI-H522 lung", "value": 3.55, "unit": "µM"}, {"measurement": "GI50", "setting": "NCI/ADR-RES ovarian", "value": 4.33, "unit": "µM"}, {"measurement": "TGI", "setting": "NCI/ADR-RES ovarian", "value": 20.7, "unit": "µM"}, {"measurement": "GI50", "setting": "OVCAR-4 ovarian", "value": 1.79, "unit": "µM"}, {"measurement": "TGI", "setting": "OVCAR-4 ovarian", "value": 3.44, "unit": "µM"}, {"measurement": "GI50", "setting": "OVCAR-5 ovarian", "value": 16.6, "unit": "µM"}, {"measurement": "TGI", "setting": "OVCAR-5 ovarian", "value": 32, "unit": "µM"}, {"measurement": "GI50", "setting": "OVCAR-8 ovarian", "value": 4.72, "unit": "µM"}, {"measurement": "TGI", "setting": "OVCAR-8 ovarian", "value": 17.6, "unit": "µM"}, {"measurement": "GI50", "setting": "PC-3 prostate", "value": 9.22, "unit": "µM"}, {"measurement": "TGI", "setting": "PC-3 prostate", "value": 23.1, "unit": "µM"}, {"measurement": "GI50", "setting": "RPMI-8226 leukemia", "value": 2.1, "unit": "µM"}, {"measurement": "TGI", "setting": "RPMI-8226 leukemia", "value": 5.37, "unit": "µM"}, {"measurement": "GI50", "setting": "RXF 393 renal", "value": 1.87, "unit": "µM"}, {"measurement": "TGI", "setting": "RXF 393 renal", "value": 3.43, "unit": "µM"}, {"measurement": "GI50", "setting": "SF-268 CNS", "value": 15.2, "unit": "µM"}, {"measurement": "TGI", "setting": "SF-268 CNS", "value": 29.6, "unit": "µM"}, {"measurement": "GI50", "setting": "SF-295 CNS", "value": 14.2, "unit": "µM"}, {"measurement": "TGI", "setting": "SF-295 CNS", "value": 27.3, "unit": "µM"}, {"measurement": "GI50", "setting": "SF-539 CNS", "value": 6.96, "unit": "µM"}, {"measurement": "TGI", "setting": "SF-539 CNS", "value": 20, "unit": "µM"}, {"measurement": "GI50", "setting": "SK-MEL-2 melanoma", "value": 11.2, "unit": "µM"}, {"measurement": "TGI", "setting": "SK-MEL-2 melanoma", "value": 23.6, "unit": "µM"}, {"measurement": "GI50", "setting": "SK-MEL-28 melanoma", "value": 3.31, "unit": "µM"}, {"measurement": "TGI", "setting": "SK-MEL-28 melanoma", "value": 10.3, "unit": "µM"}, {"measurement": "GI50", "setting": "SK-MEL-5 melanoma", "value": 13.1, "unit": "µM"}, {"measurement": "TGI", "setting": "SK-MEL-5 melanoma", "value": 25.7, "unit": "µM"}, {"measurement": "GI50", "setting": "SK-OV-3 ovarian", "value": 13.8, "unit": "µM"}, {"measurement": "TGI", "setting": "SK-OV-3 ovarian", "value": 29.9, "unit": "µM"}, {"measurement": "GI50", "setting": "SN12C renal", "value": 4.97, "unit": "µM"}, {"measurement": "TGI", "setting": "SN12C renal", "value": 17.8, "unit": "µM"}, {"measurement": "GI50", "setting": "SNB-19 CNS", "value": 16.1, "unit": "µM"}, {"measurement": "TGI", "setting": "SNB-19 CNS", "value": 30.6, "unit": "µM"}, {"measurement": "GI50", "setting": "SNB-75 CNS", "value": 17.5, "unit": "µM"}, {"measurement": "TGI", "setting": "SNB-75 CNS", "value": 38, "unit": "µM"}, {"measurement": "GI50", "setting": "SR leukemia", "value": 1.89, "unit": "µM"}, {"measurement": "TGI", "setting": "SR leukemia", "value": 6.42, "unit": "µM"}, {"measurement": "GI50", "setting": "SW-620 colon", "value": 1.67, "unit": "µM"}, {"measurement": "TGI", "setting": "SW-620 colon", "value": 3.89, "unit": "µM"}, {"measurement": "GI50", "setting": "T-47D breast", "value": 1.76, "unit": "µM"}, {"measurement": "TGI", "setting": "T-47D breast", "value": 3.95, "unit": "µM"}, {"measurement": "GI50", "setting": "TK-10 renal", "value": 12.4, "unit": "µM"}, {"measurement": "TGI", "setting": "TK-10 renal", "value": 25.5, "unit": "µM"}, {"measurement": "GI50", "setting": "U251 CNS", "value": 10.3, "unit": "µM"}, {"measurement": "TGI", "setting": "U251 CNS", "value": 22.7, "unit": "µM"}, {"measurement": "GI50", "setting": "UACC-257 melanoma", "value": 2.21, "unit": "µM"}, {"measurement": "TGI", "setting": "UACC-257 melanoma", "value": 6.22, "unit": "µM"}, {"measurement": "GI50", "setting": "UACC-62 melanoma", "value": 3.43, "unit": "µM"}, {"measurement": "TGI", "setting": "UACC-62 melanoma", "value": 12.4, "unit": "µM"}, {"measurement": "GI50", "setting": "UO-31 renal", "value": 1.91, "unit": "µM"}, {"measurement": "TGI", "setting": "UO-31 renal", "value": 4.3, "unit": "µM"}]}
